Assay results published in US20130011392A1, “METHOD FOR ASSESSING THE ABILITY OF A PATIENT TO RESPOND TO OR BE SAFELY TREATED BY A NUCLEOSIDE ANALOG BASED-CHEMOTHERAPY” (Assistance Publique Hopitaux De Marseille, priority 2009, published 2013).
Where two headings read alike, the source gives them in different places.

What was measured:
leucocytes = assay: Animal haematological toxicity monitoring (leucocytes count); type: in vivo, swiss mice; conditions: for Mean leucocytes count: day 5 after gemcitabine 100 mg/kg
Experimental: (§1) Parent-drug and difluorodeoxyuridine (dFdU) metabolite concentrations in plasma were assayed by UV-HPLC, as described in the literature (10). Elimination rate of gemcitabine was evaluated through a compartmental analysis and a stochastic model, using a home-built algorithm (11). Mean metabolization ratio for gemcitabine was calculated as follows: dFdU (μg/ml)/gemcitabine (μg/ml)×100. Carcass weights were monitored. Drug-induced leucopenia was the marker for gemcitabine-related toxicity. Leucocytes count was performed on day-0, then day-2, day-5 and day-8 post injection using Flow Cytometry analysis.

adult cancer patients = assay: Treatment-related toxicities in adult cancer patients (NCI-CTC); type: in vivo, human
Description: A total of 150 cancer patients (130 adults—Table 1 and 20 children—Table 2) hospitalized at La Timone University Hospital of Marseille, France, from January 2007 to December 2008, were enrolled in this retrospective, observational study. Written informed consent and local ethic committee approval were obtained prior to performing CDA testing. Patients were divided into 3 subsets: […] These patients were mostly treated for pancreatic (n=40 patients) or gynaecological (n=7 patients) cancers. Other tumour types included liver, lung, vesical, or other localizations. In patients with digestive cancers, gemcitabine was administered as a fixed-dose rate infusion, whereas other patients received a standard rapid infusion. […] Remaining patients were given various drug combinations including capecitabine, fluorouracil (5-FU), herceptin, navelbine, sorafenib, axatinib, and erlotinib. Gemcitabine was given either as a rapid infusion or at fixed-dose rate infusion, depending on tumor location, as described previously. Twenty patients were treated for vesical-urothelial cancers. Other tumour types were pancreatic (n=12 patients), breast (n=12 patients), gynaecological (n=12 patients), and other, including lung, head and neck, liver, and other localisations. Toxicities were graded following the standard National Cancer Institute-Common Toxicity Criteria guidelines. Toxicities of grade ≧3 were regarded as “severe”.

[1] = tested on: paediatric cancer patients; assay: Treatment-related toxicities in children; type: in vivo, human
Description: Subset 3: 20 patients (12 men/8 women; mean and SD age, 12±7 years) from the Pediatric Oncology Unit of La Timone University Hospital that had been previously treated with gemcitabine-based protocols had their CDA status phenotyped as well (Table 2). Most of these young patients were heavily pre-treated, and gemcitabine was mostly given as part of a Gemox protocol (n=14 patients), or associated with paclitaxel (n=3 patients) or with various other anticancer drugs (e.g.
carboplatine, liposomal doxorubicin) or dexamethasone. In children, mean gemcitabine dose was 1028±190 mg/m^2 (minimum, 600 mg/m^2 —maximum, 1400 mg/m^2). Tumour types were extremely heterogeneous and included osteosarcoma, medulloblastoma, Ewing's sarcoma, and Hodgkin's syndrome.
Toxicities were graded following the standard National Cancer Institute-Common Toxicity Criteria guidelines. Toxicities of grade ≧3 were regarded as “severe”. A toxic event was considered “early” when occurring […] the 1st or the 2nd day of the gemcitabine course, and was considered “late” when occurring after those days.

patients = conditions: cited from earlier work
[2] = Animal pharmacokinetics of gemcitabine; type: in vivo, swiss mice; conditions: for clearance: male, Swiss, mouse, plasma, intraperitoneal; for Gemcitabine exposure AUC0-60: gemcitabine 100 mg/kg intraperitoneally; for Increase in gemcitabine exposure in animals with inhibited CDA: inhibited CDA (THU) vs normal CDA
Experimental: as §1

[3] = tested on: pancreatic cancers and other digestive localizations; assay: Treatment efficacy in digestive cancer patients by CT imaging / CA19-9 at 3 months; type: in vivo, human; conditions: gemcitabine alone or combined
Experimental: A total of 40 adult patients (21 men/19 women; 61±11 years old) with mostly pancreatic cancers (n=36 patients) and other digestive localizations (n=4 patients) were included in this retrospective study. All patients had been treated with gemcitabine alone (n=23 patients), associated with oxaliplatin (n=7 patients), erlotinib (n=2 patients), capecitabine (n=1 patient) or other drugs, including molecules used in target therapies (n=7 patients). Mean gemcitabine dose was 980 mg/m^2 (minimum: 500 mg/m^2, maximum: 1250 mg/m^2). CDA activity was measured spectrophotometrically from serum samples. Search for three genetic mutations (79A>C, 435T>C and 208G>A) was additionally performed. The cut-off associated with CDA extensiveness (extensive CDA activity) was set at 6 U/mg (e.g., >25% of the mean value of the population). Treatment efficacy was evaluated 3 month after beginning of the chemotherapy by CT imaging, with or without additional monitoring of the CA19-9 tumor marker.

[4] = extensive subset (CDA>6 U/mg, n=8)

With `Nc1ccn([C@@H]2O[C@H](CO)[C@@H](O)C2(F)F)c(=O)n1` [gemcitabine, 2′-deoxy-2′,2′-difluorocytidine] the “Outcome by day 8” value (leucocytes; CDA-deficient mice (THU)) was “all animals were dead”, the “Decrease of leucocytes count” value (leucocytes; day 5, CDA-deficient mice (THU)) was 65% and the “Decrease of leucocytes count as compared with untreated animals” value (leucocytes; day 5, mice with normal CDA activity) was 23%. The Mean leucocytes count (leucocytes; CDA-deficient mice (THU)) was 1.5 G/L, the Mean leucocytes count (leucocytes; mice with normal CDA activity) was 3.2 G/L and the “Outcome by day 8” value (leucocytes; mice with normal CDA activity) was “all animals spontaneously recovered from their toxicities”. For the same molecule, the “Patients with severe side-effects” value (adult cancer patients; 66 extra-patients, gemcitabine in combination with another anticancer drug) was 14%, the “Patients with early severe toxicities” value (adult cancer patients; 130 adult patients, gemcitabine-containing protocol, after first or second administration) was 12% and the “Patients with early severe toxicities” value (adult cancer patients; Subset 1, gemcitabine alone, n=64) was 11%. The “Anemia grade 3/4, Early” value (adult cancer patients; Subset 1, monotherapy, n=64) was 1 (1.6%) n (%), the “Anemia grade 3/4, Late” value (adult cancer patients; Subset 1, monotherapy, n=64) was 1 (1.6%) n (%) and the “Asthenia grade 3/4, Early” value (adult cancer patients; Subset 1, monotherapy, n=64) was 1 (1.6%) n (%). For the same molecule, the “Asthenia grade 3/4, Late” value (adult cancer patients; Subset 1, monotherapy, n=64) was 1 (1.6%) n (%), the “Diarrhea grade 3/4, Early” value (adult cancer patients; Subset 1, monotherapy, n=64) was 0 (0%) n (%) and the “Diarrhea grade 3/4, Late” value (adult cancer patients; Subset 1, monotherapy, n=64) was 1 (1.6%) n (%). For the same molecule, the “Leucopenia grade 3/4, Early” value (adult cancer patients; Subset 1, monotherapy, n=64) was 7 (11%) n (%), the “Leucopenia grade 3/4, Late” value (adult cancer patients; Subset 1, monotherapy, n=64) was 10 (16%) n (%) and the “Neutropenia grade 3/4, Early” value (adult cancer patients; Subset 1, monotherapy, n=64) was 6 (9.6%) n (%). The “Neutropenia grade 3/4, Late” value (adult cancer patients; Subset 1, monotherapy, n=64) was 8 (12.8%) n (%), the “Sepsis grade 3/4, Early” value (adult cancer patients; Subset 1, monotherapy, n=64) was 3 (4.8%) n (%) and the “Sepsis grade 3/4, Late” value (adult cancer patients; Subset 1, monotherapy, n=64) was 0 (0%) n (%). The “Thrombopenia grade 3/4, Early” value (adult cancer patients; Subset 1, monotherapy, n=64) was 2 (3.2%) n (%), the “Thrombopenia grade 3/4, Late” value (adult cancer patients; Subset 1, monotherapy, n=64) was 2 (3.2%) n (%) and the “Late/cumulative grade-3 anemia” value ([1]; Subset 3, 20 children) was 20%. For the same molecule, the “Late/cumulative grade-3 neutropenia” value ([1]; Subset 3, 20 children) was 20%, the “Late/cumulative grade-3 thrombopenia” value ([1]; Subset 3, 20 children) was 10% and the Early severe toxicities ([1]; Subset 3, 20 children, gemcitabine-based protocols) was “No early severe toxicities were observed”. For the same molecule, the Tolerance ([1]; children) was “well tolerated”, the Severe toxicities reported (patients; gemcitabine given as a combination (polychemotherapy)) was 15-30% and the Severe toxicities reported (patients; gemcitabine monochemotherapy) was 5-10%. The clearance [2] was 3.25 mL/min/kg, the clearance ([2]; 100 mg/kg, mice, normal CDA) was 12.6 mL/min/kg and the “Decrease of gemcitabine clearance” value ([2]; mice with altered CDA function (THU) vs normal) was 74%. For the same molecule, the “Gemcitabine exposure AUC0-60” value ([2]; mice, inhibited CDA (THU pre-treatment)) was 142 µg/mL/min, the “Gemcitabine exposure AUC0-60” value ([2]; mice, normal CDA) was 54 µg/mL/min and the “Increase in gemcitabine exposure in animals with inhibited CDA” value ([2]; mice) was ~3 fold. The “Increase in gemcitabine exposure in animals with inhibited CDA” value ([2]; mice, listed as Gemcitabine) was 2.6 fold, the “Non-responders with progressive disease” value [3, 4] was 75% and the “Patients with controlled disease” value [3, 4] was 25%. The “Patients with controlled disease” value ([3]; non-extensive subset (CDA<6 U/mg, n=32)) was 84.5%.
